pIC50: −log10 of the molar value.
Tests used:
[1] = biological target: T1, Avi-KRAS G12C (2-169) GTP/RAF1 RBD-3xFLAG (51-131) (Homo sapiens, UniProt P01116, G12C); assay: Raf1-KRAS G12C-GTP disruption HTRF assay (Biological Example 3); format: binding; conditions: KRAS G12C, GTP-loaded
T1 construct: Avi-KRAS G12C (2-169)
Summary of the method: (§1)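 50 nM Avi-KRAS (2-169) GTP/RAF1 RBD complex; 75 nM RBD-Avi; pH 7.5 Tris buffer, 10% DMSO; cpd 30 μM top, 3x, 10 pts; 1 h RT, 700 rpm; HTRF, % of DMSO.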

SW620 cells (KRAS G12V) = assay: Cell-based pERK HTRF assay in SW620 cell (Biological Example 4)
Summary of the method: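 In SW620 cells grown in RPMI with 10% FBS, a 4 h compound treatment (0.25% DMSO, 9-point curve from 1 μM) preceded lysis. Phospho-ERK levels were then read by time-resolved FRET at 615 nm emission.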

[2] = biological target: T2, Avi-KRAS G12D (2-169) GTP/RAF1 RBD-3xFLAG (51-131) (Homo sapiens, UniProt P01116, G12D); assay: Raf1-KRAS G12D-GTP disruption HTRF assay (Biological Example 3); format: binding; conditions: KRAS G12D, GTP-loaded
T2 construct: Avi-KRAS G12D (2-169)
Summary of the method: as §1

[3] = biological target: T3, Avi-KRAS G12V (2-169) GTP/RAF1 RBD-3xFLAG (51-131) (Homo sapiens, UniProt P01116, G12V); assay: Raf1-KRAS G12V-GTP disruption HTRF assay (Biological Example 3); format: binding; conditions: KRAS G12V, GTP-loaded
T3 construct: Avi-KRAS G12V (2-169)
Summary of the method: as §1

[4] = biological target: T4, Avi-KRAS WT (2-169) GTP/RAF1 RBD-3xFLAG (51-131) (Homo sapiens, UniProt P01116); assay: Raf1-KRAS WT-GTP disruption HTRF assay (Biological Example 3); format: binding; conditions: KRAS WT, GTP-loaded
T4 construct: Avi-KRAS WT (2-169)
Summary of the method: as §1

GP2d cells (KRAS G12D) = assay: Cell-based pERK HTRF assay in GP2d cell (Biological Example 2); conditions: GP2d (KRAS G12D) cells
Summary of the method: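 GP2d (KRAS G12D) cells were plated in DMEM/10% FBS and treated the next day for 60 min with compounds. Dosing used 9-point half-log series starting at 1 μM or 100 nM in 0.25% DMSO. Lysates were read by HTRF pERK (d2/Eu cryptate antibodies) after 4–24 h at room temperature, with excitation at 320 nm and emission at 615 nm.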

[5] = Homo sapiens, SW-620, SW620 (KRAS G12V) cells

T2 sequence (P01116 2-169 isoform P01116-2 G12D): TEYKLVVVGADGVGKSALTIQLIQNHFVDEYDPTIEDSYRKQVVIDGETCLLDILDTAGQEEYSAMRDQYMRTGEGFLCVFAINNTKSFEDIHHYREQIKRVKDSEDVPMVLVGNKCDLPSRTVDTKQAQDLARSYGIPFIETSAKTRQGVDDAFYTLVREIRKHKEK
T1 sequence (P01116 2-169 isoform P01116-2 G12C): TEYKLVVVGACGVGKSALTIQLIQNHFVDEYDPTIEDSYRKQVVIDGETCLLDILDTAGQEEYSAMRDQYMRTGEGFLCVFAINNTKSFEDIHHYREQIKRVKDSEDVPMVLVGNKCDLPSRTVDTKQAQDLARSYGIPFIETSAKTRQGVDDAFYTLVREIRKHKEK
T4 sequence (P01116 2-169 isoform P01116-2): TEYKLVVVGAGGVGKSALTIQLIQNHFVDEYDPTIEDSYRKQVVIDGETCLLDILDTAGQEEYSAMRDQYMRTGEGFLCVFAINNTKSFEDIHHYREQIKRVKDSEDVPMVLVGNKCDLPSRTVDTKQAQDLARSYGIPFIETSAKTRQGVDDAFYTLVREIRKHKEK
T3 sequence (P01116 2-169 isoform P01116-2 G12V): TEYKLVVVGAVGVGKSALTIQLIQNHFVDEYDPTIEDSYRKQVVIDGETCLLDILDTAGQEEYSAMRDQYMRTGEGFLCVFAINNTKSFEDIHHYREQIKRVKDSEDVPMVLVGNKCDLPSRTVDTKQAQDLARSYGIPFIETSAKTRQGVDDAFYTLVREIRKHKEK

pIC50 [1]	pIC50 (SW620 cells (KRAS G12V); [5])	pIC50 [2]	pIC50 [3]	pIC50 [4]	pIC50 (GP2d cells (KRAS G12D); GP2d)	pIC50 (SW620 cells (KRAS G12V); SW620 (KRAS G12V) cells)	pIC50 (GP2d cells (KRAS G12D))	Structure (SMILES)
6.00 to 7.00	–	6.00 to 7.00	6.00 to 7.00	6.00 to 7.00	–	> 7.00	> 7.00	CCN(c1nc(OC[C@@]23CCCN2C[C@H](F)C3)nc2c(F)c(-c3ccc(F)c4sc(N)c(C#N)c34)c(C(F)(F)F)cc12)C1C[C@H](C)N(C(=O)C2CC2)C1 (stereo partly drawn) [Compound 909]
6.00 to 7.00	> 7.00	6.00 to 7.00	6.00 to 7.00	6.00 to 7.00	> 7.00	–	–	CCN(c1nc(OC[C@@]23CCCN2C[C@H](F)C3)nc2c(F)c(-c3ccc(F)c4sc(N)c(C#N)c34)c(C(F)(F)F)cc12)[C@H]1CCN(C(=O)C(CF)CF)C1 (atropisomer, axis not shown) [Compound 857]
6.00 to 7.00	> 7.00	6.00 to 7.00	6.00 to 7.00	6.00 to 7.00	> 7.00	–	–	CCN(c1nc(OC[C@@]23CCCN2C[C@H](F)C3)nc2c(F)c(-c3ccc(F)c4sc(N)c(C#N)c34)c(C(F)(F)F)cc12)[C@H]1CCN(C(=O)O[C@H]2CCCOC2)C1 (atropisomer, axis not shown) [Compound 822]
6.00 to 7.00	> 7.00	6.00 to 7.00	6.00 to 7.00	6.00 to 7.00	> 7.00	–	–	CCN(c1nc(OCC23CCCN2CC(F)C3)nc2c(F)c(-c3ccc(F)c4sc(N)c(C#N)c34)c(C(F)(F)F)cc12)C1CCN(C(=O)c2ncns2)C1 (stereo not drawn) [Compound 949]

More lines, now with the values behind:

Structure (SMILES)	pIC50 [1]	pIC50 (SW620 cells (KRAS G12V); [5])	pIC50 [2]	pIC50 [3]	pIC50 [4]	pIC50 (GP2d cells (KRAS G12D); GP2d)	pIC50 (SW620 cells (KRAS G12V); SW620 (KRAS G12V) cells)	pIC50 (GP2d cells (KRAS G12D))
CCN(c1nc(OC[C@@]23CCCN2C[C@H](F)C3)nc2c(F)c(-c3ccc(F)c4sc(N)c(C#N)c34)c(C(F)(F)F)cc12)[C@H]1CCN(C(=O)c2ccc(C#N)s2)C1 (atropisomer, axis not shown) [Compound 952]	6.00 to 7.00	> 7.00	6.00 to 7.00	6.00 to 7.00	5.00 to 6.00	> 7.00	–	–
CCN(c1nc(OC[C@@]23CCCN2C[C@H](F)C3)nc2c(F)c(-c3ccc(F)c4sc(N)c(C#N)c34)c(C(F)(F)F)cc12)[C@H]1CCCN(C)C1=O (atropisomer, axis not shown) [Compound 967]	5.00 to 6.00	> 7.00	6.00 to 7.00	5.00 to 6.00	5.00 to 6.00	> 7.00	–	–
CCN(c1nc(OC[C@@]23CCCN2C[C@H](F)C3)nc2c(F)c(-c3ccc(F)c4sc(N)c(C#N)c34)c(C(F)(F)F)cc12)[C@H]1C[C@H](COC)N(C(=O)N2CC(F)C2)C1 [Compound 875]	6.00 to 7.00	> 7.00	5.00 to 6.00	6.00 to 7.00	5.00 to 6.00	> 7.00	–	–
C[C@@H](c1cccnc1)N(C)c1nc(OC[C@@]23CCCN2C[C@H](F)C3)nc2c(F)c(-c3ccc(F)c4sc(N)c(C#N)c34)c(C(F)(F)F)cc12 [Compound 969]	5.00 to 6.00	> 7.00	5.00 to 6.00	5.00 to 6.00	5.00 to 6.00	> 7.00	–	–
CCN(c1nc(OC[C@@]23CCCN2C[C@H](F)C3)nc2c(F)c(-c3ccc(F)c4sc(N)c(C#N)c34)c(C(F)(F)F)cc12)[C@H]1C[C@H]2COCC(=O)N2C1 (atropisomer, axis not shown) [Compound 882]	≥ 7.00	> 7.00	≥ 7.00	≥ 7.00	6.00 to 7.00	> 7.00	–	–
CCN(c1nc(OC[C@@]23CCCN2C[C@H](F)C3)nc2c(F)c(-c3ccc(F)c4sc(N)c(C#N)c34)c(C(F)(F)F)cc12)[C@H]1CCN(C(=O)c2coc(C)n2)[C@@H]1C (atropisomer, axis not shown) [Compound 899]	6.00 to 7.00	> 7.00	6.00 to 7.00	6.00 to 7.00	6.00 to 7.00	> 7.00	–	–
CCN(c1nc(OC[C@@]23CCCN2C[C@H](F)C3)nc2c(F)c(-c3ccc(F)c4sc(N)c(C#N)c34)c(C(F)(F)F)cc12)[C@H]1C[C@@H](C(=O)N(C)C)C1 (atropisomer, axis not shown) [Compound 957]	5.00 to 6.00	–	6.00 to 7.00	5.00 to 6.00	5.00 to 6.00	–	> 7.00	> 7.00

From US20260042764A1, “COMPOSITIONS AND METHODS FOR INHIBITION OF KRAS” (TheRas, Inc., priority 2022, published 2026)
